Test results reported in publication PMC6429214, “Design, Synthesis and Biological Evaluation of Isoxazole-Based CK1 Inhibitors Modified with Chiral Pyrrolidine Scaffolds” (Molecules, 2019).

Tests used:
Assay in all cases: 33PanQinase panel
Type in all cases: biochemical
DAPK1 = biological target: T1, DAPK1 (Homo sapiens, UniProt P53355); conditions: DAPK1, 1 µM; read-out: Residual Activity (%)
T1 construct: purchased ProQinase
Summary of the method: (§1)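 Single-point screen at 1 µM in a 320 wild-type kinase panel using activity-based radiometric 33P assay; final DMSO 1%. Values are percent residual kinase activity relative to DMSO control.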

KIT = biological target: T2, KIT (Homo sapiens, UniProt P10721); conditions: read-out: Residual Activity (%)
T2 construct: purchased ProQinase
T2 sequence (P10721 26-976): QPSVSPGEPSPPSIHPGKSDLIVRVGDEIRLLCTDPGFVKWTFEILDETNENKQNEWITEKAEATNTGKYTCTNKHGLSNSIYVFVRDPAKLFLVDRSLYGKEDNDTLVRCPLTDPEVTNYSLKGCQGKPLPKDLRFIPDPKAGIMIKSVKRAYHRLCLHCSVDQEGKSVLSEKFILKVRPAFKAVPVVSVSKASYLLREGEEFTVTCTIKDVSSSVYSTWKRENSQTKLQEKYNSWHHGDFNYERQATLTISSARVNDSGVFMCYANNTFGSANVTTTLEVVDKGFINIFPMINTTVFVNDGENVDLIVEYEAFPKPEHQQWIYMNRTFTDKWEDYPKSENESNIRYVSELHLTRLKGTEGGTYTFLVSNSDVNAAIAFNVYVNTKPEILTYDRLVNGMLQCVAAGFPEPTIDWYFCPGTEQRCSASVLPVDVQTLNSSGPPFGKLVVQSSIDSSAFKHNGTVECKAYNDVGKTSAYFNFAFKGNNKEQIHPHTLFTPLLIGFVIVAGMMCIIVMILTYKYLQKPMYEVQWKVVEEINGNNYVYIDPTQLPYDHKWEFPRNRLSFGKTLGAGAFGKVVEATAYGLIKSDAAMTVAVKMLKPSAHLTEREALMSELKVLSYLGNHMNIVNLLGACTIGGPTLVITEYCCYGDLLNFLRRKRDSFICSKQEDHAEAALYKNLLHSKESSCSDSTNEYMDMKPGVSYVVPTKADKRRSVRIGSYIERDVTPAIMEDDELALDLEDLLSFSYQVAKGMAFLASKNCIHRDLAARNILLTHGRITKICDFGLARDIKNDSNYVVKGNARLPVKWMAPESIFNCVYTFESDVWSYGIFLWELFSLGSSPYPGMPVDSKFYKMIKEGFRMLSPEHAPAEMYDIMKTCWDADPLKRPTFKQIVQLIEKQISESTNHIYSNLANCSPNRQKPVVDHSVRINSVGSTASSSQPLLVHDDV
Summary of the method: as §1

ZAK = biological target: T3, ZAK (Homo sapiens, UniProt Q9NYL2); conditions: read-out: Residual Activity (%)
T3 construct: purchased ProQinase
Summary of the method: as §1

SNARK = biological target: T4, SNARK (Homo sapiens, UniProt Q9H093); conditions: read-out: Residual Activity (%)
T4 construct: purchased ProQinase
Summary of the method: as §1

HCK = biological target: T5, HCK (Homo sapiens, UniProt P08631); conditions: read-out: Residual Activity (%)
T5 construct: purchased ProQinase
Summary of the method: as §1

NEK1 = biological target: T6, NEK1 (Homo sapiens, UniProt Q96PY6); conditions: NEK1, 1 µM; read-out: Residual Activity (%)
T6 construct: purchased ProQinase
Summary of the method: as §1

NEK11 = biological target: T7, NEK11 (Homo sapiens, UniProt Q8NG66); conditions: NEK11, 1 µM; read-out: Residual Activity (%)
T7 construct: purchased ProQinase
T7 sequence (Q8NG66 whole entry): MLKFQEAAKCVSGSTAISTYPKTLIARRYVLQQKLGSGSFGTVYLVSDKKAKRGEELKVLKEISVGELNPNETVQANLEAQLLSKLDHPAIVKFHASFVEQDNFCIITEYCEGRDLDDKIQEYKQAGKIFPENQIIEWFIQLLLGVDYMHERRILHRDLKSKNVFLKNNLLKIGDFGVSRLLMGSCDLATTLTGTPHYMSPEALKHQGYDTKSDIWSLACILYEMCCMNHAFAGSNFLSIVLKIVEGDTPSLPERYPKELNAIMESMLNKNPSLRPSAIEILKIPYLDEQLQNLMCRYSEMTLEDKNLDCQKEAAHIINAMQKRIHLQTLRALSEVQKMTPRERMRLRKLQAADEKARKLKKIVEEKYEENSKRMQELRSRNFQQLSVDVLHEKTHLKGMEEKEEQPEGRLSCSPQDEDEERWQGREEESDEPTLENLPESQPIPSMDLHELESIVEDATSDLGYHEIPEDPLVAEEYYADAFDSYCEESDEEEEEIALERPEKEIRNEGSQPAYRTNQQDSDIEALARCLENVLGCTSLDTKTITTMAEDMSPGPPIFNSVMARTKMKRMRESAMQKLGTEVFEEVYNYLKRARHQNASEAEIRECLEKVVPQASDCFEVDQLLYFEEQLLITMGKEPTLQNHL
Summary of the method: as §1

MAP4K4 = biological target: T8, MAP4K4 (Homo sapiens, UniProt O95819); conditions: MAP4K4, 1 µM; read-out: Residual Activity (%)
T8 construct: purchased ProQinase
Summary of the method: as §1

Aurora-A = biological target: T9, Aurora-A (Homo sapiens, UniProt O14965); conditions: read-out: Residual Activity (%)
T9 construct: purchased ProQinase
Summary of the method: as §1

FYN = biological target: T10, FYN (Homo sapiens, UniProt P06241); conditions: read-out: Residual Activity (%)
T10 construct: purchased ProQinase
Summary of the method: as §1

CK1-gamma2 = biological target: T11, CK1-gamma2 (Homo sapiens, UniProt P78368); conditions: CK1-gamma2, 1 µM; read-out: Residual Activity (%)
T11 construct: purchased ProQinase
Summary of the method: as §1

EPHB1 = biological target: T12, EPHB1 (Homo sapiens, UniProt P54762); conditions: EPHB1, 1 µM; read-out: Residual Activity (%)
T12 construct: purchased ProQinase
T12 sequence (P54762 18-984): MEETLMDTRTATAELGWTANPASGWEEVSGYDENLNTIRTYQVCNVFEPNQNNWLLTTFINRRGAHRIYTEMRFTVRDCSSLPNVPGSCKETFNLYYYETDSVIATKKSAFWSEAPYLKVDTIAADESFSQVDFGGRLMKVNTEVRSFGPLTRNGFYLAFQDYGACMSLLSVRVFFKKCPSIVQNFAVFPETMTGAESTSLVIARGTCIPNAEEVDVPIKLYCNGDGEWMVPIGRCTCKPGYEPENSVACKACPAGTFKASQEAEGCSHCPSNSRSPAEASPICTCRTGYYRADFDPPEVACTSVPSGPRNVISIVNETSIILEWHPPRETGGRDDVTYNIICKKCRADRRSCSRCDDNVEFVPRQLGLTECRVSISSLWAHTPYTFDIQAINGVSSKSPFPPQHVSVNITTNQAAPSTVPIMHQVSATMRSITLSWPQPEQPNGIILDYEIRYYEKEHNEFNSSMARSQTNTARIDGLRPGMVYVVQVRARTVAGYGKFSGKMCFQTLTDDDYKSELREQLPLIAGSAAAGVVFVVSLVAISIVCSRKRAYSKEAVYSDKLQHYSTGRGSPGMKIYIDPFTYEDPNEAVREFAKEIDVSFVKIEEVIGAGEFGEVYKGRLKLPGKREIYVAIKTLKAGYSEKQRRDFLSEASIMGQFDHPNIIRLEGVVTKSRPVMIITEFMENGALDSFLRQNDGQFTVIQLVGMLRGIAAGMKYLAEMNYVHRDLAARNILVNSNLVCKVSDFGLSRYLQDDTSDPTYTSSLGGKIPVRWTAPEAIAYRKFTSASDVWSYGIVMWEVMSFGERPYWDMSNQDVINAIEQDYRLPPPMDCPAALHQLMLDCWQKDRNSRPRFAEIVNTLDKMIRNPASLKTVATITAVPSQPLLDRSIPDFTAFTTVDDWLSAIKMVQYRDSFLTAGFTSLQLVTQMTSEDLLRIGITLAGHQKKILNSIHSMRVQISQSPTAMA
Summary of the method: as §1

p38-beta = biological target: T13, p38-beta (Homo sapiens, UniProt Q15759); conditions: read-out: Residual Activity (%)
T13 construct: purchased ProQinase
Summary of the method: as §1

TAOK3 = biological target: T14, TAOK3 (Homo sapiens, UniProt Q9H2K8); conditions: TAOK3, 1 µM; read-out: Residual Activity (%)
T14 construct: purchased ProQinase
T14 sequence (Q9H2K8 whole entry): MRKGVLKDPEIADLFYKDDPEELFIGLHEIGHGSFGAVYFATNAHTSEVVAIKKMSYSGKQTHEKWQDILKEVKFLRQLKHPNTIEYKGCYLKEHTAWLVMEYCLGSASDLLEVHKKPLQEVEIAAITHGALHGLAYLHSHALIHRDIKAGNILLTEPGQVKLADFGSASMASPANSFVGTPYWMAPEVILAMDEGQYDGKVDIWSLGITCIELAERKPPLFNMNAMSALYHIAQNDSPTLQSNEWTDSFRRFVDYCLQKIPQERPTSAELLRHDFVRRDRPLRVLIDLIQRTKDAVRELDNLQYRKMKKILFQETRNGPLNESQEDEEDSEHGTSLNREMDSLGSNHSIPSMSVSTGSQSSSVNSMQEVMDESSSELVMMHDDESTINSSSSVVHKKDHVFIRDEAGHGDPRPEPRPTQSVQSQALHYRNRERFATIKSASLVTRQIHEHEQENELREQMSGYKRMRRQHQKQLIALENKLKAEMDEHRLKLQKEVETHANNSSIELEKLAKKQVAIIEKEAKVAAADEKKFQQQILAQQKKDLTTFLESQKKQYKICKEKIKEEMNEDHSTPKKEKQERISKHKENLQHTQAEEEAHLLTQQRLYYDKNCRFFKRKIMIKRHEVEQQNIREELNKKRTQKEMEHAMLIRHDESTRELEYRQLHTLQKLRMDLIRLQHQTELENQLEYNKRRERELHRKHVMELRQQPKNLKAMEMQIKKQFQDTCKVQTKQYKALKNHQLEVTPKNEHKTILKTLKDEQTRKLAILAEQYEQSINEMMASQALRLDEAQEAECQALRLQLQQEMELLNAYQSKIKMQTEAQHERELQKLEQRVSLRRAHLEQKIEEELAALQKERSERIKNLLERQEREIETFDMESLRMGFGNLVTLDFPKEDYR
Summary of the method: as §1

ZAP70 = biological target: T15, ZAP70 (Homo sapiens, UniProt P43403); conditions: ZAP70, 1 µM; read-out: Residual Activity (%)
T15 construct: purchased ProQinase
Summary of the method: as §1

S6K = biological target: T16, S6K (Homo sapiens, UniProt P23443); conditions: read-out: Residual Activity (%)
T16 construct: purchased ProQinase
Summary of the method: as §1

BMX = biological target: T17, BMX (Homo sapiens, UniProt P51813); conditions: read-out: Residual Activity (%)
T17 construct: purchased ProQinase
Summary of the method: as §1

MEK5 = biological target: T18, MEK5 (Homo sapiens, UniProt Q13163); conditions: MEK5, 1 µM; read-out: Residual Activity (%)
T18 construct: purchased ProQinase
Summary of the method: as §1

ITK = biological target: T19, ITK (Homo sapiens, UniProt Q08881); conditions: read-out: Residual Activity (%)
T19 construct: purchased ProQinase
Summary of the method: as §1

AMPK-alpha1 aa1-550 = biological target: T20, AMPK-alpha1 aa1-550 (Homo sapiens, UniProt Q13131); conditions: AMPK-alpha1 aa1-550, 1 µM; read-out: Residual Activity (%)
T20 construct: purchased ProQinase
Summary of the method: as §1

SLK = biological target: T21, SLK (Homo sapiens, UniProt Q9H2G2); conditions: read-out: Residual Activity (%)
T21 construct: purchased ProQinase
Summary of the method: as §1

EGF-R = biological target: T22, EGF-R (Homo sapiens, UniProt P00533); conditions: read-out: Residual Activity (%)
T22 construct: purchased ProQinase
Summary of the method: as §1

ERK1 = biological target: T23, ERK1 (Homo sapiens, UniProt P27361); conditions: ERK1, 1 µM; read-out: Residual Activity (%)
T23 construct: purchased ProQinase
Summary of the method: as §1

STK25 = biological target: T24, STK25 (Homo sapiens, UniProt O00506); conditions: STK25, 1 µM; read-out: Residual Activity (%)
T24 construct: purchased ProQinase
T24 sequence (O00506 whole entry): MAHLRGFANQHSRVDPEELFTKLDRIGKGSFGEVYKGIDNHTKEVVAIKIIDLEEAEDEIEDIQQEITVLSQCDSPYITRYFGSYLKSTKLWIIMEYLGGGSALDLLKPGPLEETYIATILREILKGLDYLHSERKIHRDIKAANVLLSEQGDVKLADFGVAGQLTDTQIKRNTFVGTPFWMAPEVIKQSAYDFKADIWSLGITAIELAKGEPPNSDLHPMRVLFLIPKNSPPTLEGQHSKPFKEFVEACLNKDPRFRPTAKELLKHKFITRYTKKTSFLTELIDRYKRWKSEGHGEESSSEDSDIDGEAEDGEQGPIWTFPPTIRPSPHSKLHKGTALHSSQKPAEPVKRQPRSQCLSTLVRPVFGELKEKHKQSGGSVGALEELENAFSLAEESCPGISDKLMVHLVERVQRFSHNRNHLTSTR
Summary of the method: as §1

PKC-gamma = biological target: T25, PKC-gamma (Homo sapiens, UniProt P05129); conditions: read-out: Residual Activity (%)
T25 construct: purchased ProQinase
Summary of the method: as §1

Aurora-C = biological target: T26, Aurora-C (Homo sapiens, UniProt Q9UQB9); conditions: read-out: Residual Activity (%)
T26 construct: purchased ProQinase
Summary of the method: as §1

PAK6 = biological target: T27, PAK6 (Homo sapiens, UniProt Q9NQU5); conditions: PAK6, 1 µM; read-out: Residual Activity (%)
T27 construct: purchased ProQinase
Summary of the method: as §1

MAP3K7/MAP3K7IP1 = biological target: T28, MAP3K7/MAP3K7IP1 (Homo sapiens, UniProt O43318); conditions: MAP3K7/MAP3K7IP1, 1 µM; read-out: Residual Activity (%)
T28 construct: purchased ProQinase
T28 sequence (O43318 1-303 limits assumed): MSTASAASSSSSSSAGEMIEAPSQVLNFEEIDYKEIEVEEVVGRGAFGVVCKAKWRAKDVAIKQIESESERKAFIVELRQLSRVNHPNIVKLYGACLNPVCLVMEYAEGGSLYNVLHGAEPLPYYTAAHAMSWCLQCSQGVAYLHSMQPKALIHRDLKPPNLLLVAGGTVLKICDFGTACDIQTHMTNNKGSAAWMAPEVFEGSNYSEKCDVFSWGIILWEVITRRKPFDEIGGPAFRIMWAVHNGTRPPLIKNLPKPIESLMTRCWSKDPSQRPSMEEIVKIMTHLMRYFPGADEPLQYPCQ
T28 sequence (Q15750 437-504 partner limits assumed): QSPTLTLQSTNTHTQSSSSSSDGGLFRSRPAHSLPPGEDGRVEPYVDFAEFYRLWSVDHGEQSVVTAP
Summary of the method: as §1

DCAMKL2 = biological target: T29, DCAMKL2 (Homo sapiens, UniProt Q8N568); conditions: DCAMKL2, 1 µM; read-out: Residual Activity (%)
T29 construct: purchased ProQinase
Summary of the method: as §1

DAPK3 = biological target: T30, DAPK3 (Homo sapiens, UniProt O43293); conditions: DAPK3, 1 µM; read-out: Residual Activity (%)
T30 construct: purchased ProQinase
Summary of the method: as §1

PRKX = biological target: T31, PRKX (Homo sapiens, UniProt P51817); conditions: read-out: Residual Activity (%)
T31 construct: purchased ProQinase
Summary of the method: as §1

Structure (SMILES): COc1ccc(-c2cc(C(=O)Nc3cc(-c4c(-c5ccc(F)cc5)noc4C(C)C)ccn3)n(CC3NCC(O)C3O)c2)cc1 (stereo not shown) [29d]
- remaining activity at 1 µM (DAPK1): 101%
- remaining activity at 1 µM (KIT): 102%
- remaining activity at 1 µM (ZAK): 116%
- remaining activity at 1 µM (SNARK): 123%
- remaining activity at 1 µM (HCK): 110%
- remaining activity at 1 µM (NEK1): 101%
- remaining activity at 1 µM (NEK11): 100%
- remaining activity at 1 µM (MAP4K4): 83%
- remaining activity at 1 µM (Aurora-A): 103%
- remaining activity at 1 µM (FYN): 156%
- remaining activity at 1 µM (CK1-gamma2): 80%
- remaining activity at 1 µM (EPHB1): 108%
- remaining activity at 1 µM (p38-beta): 74%
- remaining activity at 1 µM (TAOK3): 96%
- remaining activity at 1 µM (ZAP70): 116%
- remaining activity at 1 µM (S6K): 102%
- remaining activity at 1 µM (BMX): 96%
- remaining activity at 1 µM (MEK5): 110%
- remaining activity at 1 µM (ITK): 114%
- remaining activity at 1 µM (AMPK-alpha1 aa1-550): 99%
- remaining activity at 1 µM (SLK): 114%
- remaining activity at 1 µM (EGF-R): 108%
- remaining activity at 1 µM (ERK1): 102%
- remaining activity at 1 µM (STK25): 98%
- remaining activity at 1 µM (PKC-gamma): 112%
- remaining activity at 1 µM (Aurora-C): 97%
- remaining activity at 1 µM (PAK6): 83%
- remaining activity at 1 µM (MAP3K7/MAP3K7IP1): 95%
- remaining activity at 1 µM (DCAMKL2): 86%
- remaining activity at 1 µM (DAPK3): 90%
- remaining activity at 1 µM (PRKX): 92%
